This test deals with T1, Breast Cancer Resistance Protein (BCRP) (Homo sapiens, UniProt Q9UNQ0).
T1 sequence (Q9UNQ0 1-655): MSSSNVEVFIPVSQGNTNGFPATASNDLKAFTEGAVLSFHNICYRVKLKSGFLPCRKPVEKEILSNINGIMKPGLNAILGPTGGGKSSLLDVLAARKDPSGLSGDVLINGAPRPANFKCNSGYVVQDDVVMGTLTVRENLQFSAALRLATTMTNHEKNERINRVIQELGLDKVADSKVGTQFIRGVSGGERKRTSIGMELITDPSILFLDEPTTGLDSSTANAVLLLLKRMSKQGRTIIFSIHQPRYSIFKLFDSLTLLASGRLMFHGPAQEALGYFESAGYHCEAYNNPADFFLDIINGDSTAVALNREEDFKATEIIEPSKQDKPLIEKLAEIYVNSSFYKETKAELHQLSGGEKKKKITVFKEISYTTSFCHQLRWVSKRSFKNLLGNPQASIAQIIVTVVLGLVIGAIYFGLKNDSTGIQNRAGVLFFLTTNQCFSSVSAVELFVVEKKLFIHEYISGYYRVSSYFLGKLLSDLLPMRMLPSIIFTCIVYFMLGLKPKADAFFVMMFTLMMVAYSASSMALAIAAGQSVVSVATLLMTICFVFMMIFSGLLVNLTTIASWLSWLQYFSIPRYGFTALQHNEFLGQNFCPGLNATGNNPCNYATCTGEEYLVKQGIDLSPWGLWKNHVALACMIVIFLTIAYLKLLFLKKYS
The test is described as follows: inhibition of [3H]-MTX efflux from MDCKII-BCRP transfected cells and SV40-HCEC. The class given is cell-based.

From publication PMC4406241 (Current eye research, 2009) come the findings set out here.

The term IC50 denotes the concentration at which inhibition is half-maximal. High values mean lower potency, low ones higher potency. The molecule `COc1ccc2c3c([nH]c2c1)[C@H](C=C(C)C)N1C(=O)[C@@H]2CCCN2C(=O)[C@@H]1C3` [FTC, Fumetremorgin C] registered an IC50 of around 10 µM.
